This note sets out measurements from patent US9580430B2, “9H-pyrimido[4,5-B]indoles and related analogs as BET bromodomain inhibitors” (THE REGENTS OF THE UNIVERSITY OF MICHIGAN, priority 2014, dated 2017).

Each structure is given as a SMILES string.

The test system of assay [1] is MDA-MB-436. In words: Cell growth inhibition, MDA-MB-436 breast cancer cells (WST-8). Format: cell-based. As to conditions: Homo sapiens, MDA-MB-436, 96 h; 4 days; read-out: IC50 (nM) MDA-MB-436 Cell Line (WST assay). A digest of the protocol:
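IC50 was computed from WST-8-based cell counting in MDA-MB-436 cells, with absorbance read at 450 nm.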

In assay [2] the test system is MOLM-13. In words: Cell growth inhibition, MOLM-13 leukemia cells (CellTiter-Glo). Format: cell-based. The following applies: Homo sapiens, MOLM-13, 96 h; 4 days; read-out: IC50 (nM) MOLM-13 Cell Line (CellTiter-Glo assay). A digest of the protocol:
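Luminescent ATP-based viability (CellTiter-Glo, 10-20 min at room temperature) in compound-treated MOLM-13 cells; the half-maximal inhibitory concentration was calculated from the readout.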

Assay [3] addresses T1, recombinant BRD4 BD1 (Homo sapiens, UniProt O60885).
T1 construct: for recombinant BRD4 BD1 and BRD4 BD2 proteins
In words: Competitive fluorescence-polarization (FP) binding assay, BRD4 BD1. Further: probe 1.5 nM. As to conditions: competitive FP assay; protein 10 nM, probe […]; read-out: IC50 (nM) BRD4 BD1. The method, boiled down:
(§1)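 Buffer: 100 mM potassium phosphate, pH 6.5, 0.01% Triton X-100; compounds added in buffer with 40% ethylene glycol to preformed complex of fluorescent probe with BRD4 BD1 (10 nM final) or BD2 (6 nM final). After 30 min at room temperature, polarization read. IC50 from nonlinear fits of competition curves, with Ki.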

The target of assay [4] is T2, recombinant BRD4 BD2 (Homo sapiens, UniProt O60885).
T2 construct: for recombinant BRD4 BD1 and BRD4 BD2 proteins
In words: Competitive fluorescence-polarization (FP) binding assay, BRD4 BD2. Further: probe 1.5 nM. As to conditions: competitive FP assay; protein 6 nM, probe […]; read-out: IC50 (nM) BRD4 BD2. The method, boiled down: as §1

`COc1cc2c(cc1-c1c(C)noc1C)[nH]c1nc(C)nc(Nc3c4c(nn3C)CCCC4)c12` [Cpd. No. 125, 7-(3,5-Dimethylisoxazol-4-yl)-6-methoxy-2-methyl-N-(2-methyl-4,5,6,7-tetrahydro-2H-indazol-3-yl)-9H-pyrimido[4,5-b]indol-4-amine]: the IC50 was 17.5 nM in assay [1], 11.3 nM in assay [2], 4.4 nM in assay [3] and 2 nM in assay [4].

In the case of `COc1cc2c(cc1-c1c(C)noc1C)[nH]c1nc(C)nc(Nc3cc(C(C)(C)C)n[nH]3)c12` [Cpd. No. 126, N-(3-(tert-Butyl)-1H-pyrazol-5-yl)-7-(3,5-dimethylisoxazol-4-yl)-6-methoxy-2-methyl-9H-pyrimido[4,5-b]indol-4-amine], the IC50 stood at 140 nM in assay [1], 65.3 nM in assay [2], 11 nM in assay [3] and 32.8 nM in assay [4].

Regarding `COc1cc2c(cc1-c1c(C)noc1C)[nH]c1nc(C)nc(Nc3nn(C)c4c(F)cccc34)c12` [Cpd. No. 129, 7-(3,5-Dimethylisoxazol-4-yl)-N-(7-fluoro-1-methyl-1H-indazol-3-yl)-6-methoxy-2-methyl-9H-pyrimido[4,5-b]indol-4-amine], the IC50 was found to be 201 nM in assay [1], 144 nM in assay [2], 105 nM in assay [3] and 202 nM in assay [4].

Regarding `COc1cc2c(cc1-c1c(C)noc1C)[nH]c1nc(C)nc(Nc3nn(CCO)c4ccccc34)c12` [Cpd. No. 131, 2-(3-((7-(3,5-Dimethylisoxazol-4-yl)-6-methoxy-2-methyl-9H-pyrimido[4,5-b]indol-4-yl)amino)-1H-indazol-1-yl)ethanol], the IC50 in assay [1] was 97.6 nM; in assay [2] it was 32.7 nM; in assay [3], 9.6 nM; in assay [4], 51.4 nM.

Consider `COc1cc2c(cc1-c1c(C)noc1C)[nH]c1nc(C)nc(Nc3nn(C)c4cccc(F)c34)c12` [Cpd. No. 132, 7-(3,5-Dimethylisoxazol-4-yl)-N-(4-fluoro-1-methyl-1H-indazol-3-yl)-6-methoxy-2-methyl-9H-pyrimido[4,5-b]indol-4-amine], for which the half-maximal inhibitory concentration (IC50) in assay [1] came to 224 nM; in assay [2] it was 97.5 nM; in assay [3], 68.6 nM; in assay [4], 718 nM.

In the case of `COc1cc2c(cc1-c1c(C)noc1C)[nH]c1nc(C)nc(Nc3cc(C(C)(C)C)ns3)c12` [Cpd. No. 133, 3-(tert-Butyl)-N-(7-(3,5-dimethylisoxazol-4-yl)-6-methoxy-2-methyl-9H-pyrimido[4,5-b]indol-4-yl)isothiazol-5-amine], the IC50 in assay [1] is 47900 nM; in assay [2] it was 433 nM; in assay [3], greater than 1000 nM; in assay [4] it was greater than 1000 nM.

For `COc1cc2c(cc1-c1c(C)noc1C)[nH]c1nc(C)nc(Nc3cnn4c3CCC4)c12` [Cpd. No. 134, N-(5,6-Dihydro-4H-pyrrolo[1,2-b]pyrazol-3-yl)-7-(3,5-dimethylisoxazol-4-yl)-6-methoxy-2-methyl-9H-pyrimido[4,5-b]indol-4-amine], the IC50 in assay [1] stood at 128 nM; in assay [2] it was 32 nM; in assay [3], 40.2 nM; in assay [4], 30.5 nM.

For `COc1cc2c(cc1-c1c(C)noc1C)[nH]c1nc(C)nc(Nc3c(C)cnn3C3CCCC3)c12` [Cpd. No. 135, N-(1-Cyclopentyl-4-methyl-1H-pyrazol-5-yl)-7-(3,5-dimethylisoxazol-4-yl)-6-methoxy-2-methyl-9H-pyrimido[4,5-b]indol-4-amine], the IC50 in assay [1] amounted to 57.6 nM; in assay [2], 30.2 nM; in assay [3] it was 5.6 nM; in assay [4], 1.3 nM.

`COc1cc2c(cc1-c1c(C)noc1C)[nH]c1nc(C)nc(Nc3cc(C4CCC4)nn3C)c12` [Cpd. No. 136, N-(3-Cyclobutyl-1-methyl-1H-pyrazol-5-yl)-7-(3,5-dimethylisoxazol-4-yl)-6-methoxy-2-methyl-9H-pyrimido[4,5-b]indol-4-amine]: the IC50 in assay [1] turned out to be 63.2 nM; in assay [2], 26.6 nM; in assay [3], 10.5 nM; in assay [4], 6.9 nM.

As for `COc1cc2c(cc1-c1c(C)noc1C)[nH]c1nc(C)nc(Nc3c4c(nn3C(C)C)CCCC4)c12` [Cpd. No. 138, 7-(3,5-Dimethylisoxazol-4-yl)-N-(2-isopropyl-4,5,6,7-tetrahydro-2H-indazol-3-yl)-6-methoxy-2-methyl-9H-pyrimido[4,5-b]indol-4-amine], the IC50 turned out to be 30.3 nM in assay [1], 5.7 nM in assay [2], 4.2 nM in assay [3] and 1.2 nM in assay [4].

In the case of `COc1cc2c(cc1-c1c(C)noc1C)[nH]c1nc(C)nc(Nc3cnn4c3CCCC4)c12` [Cpd. No. 139, 7-(3,5-Dimethylisoxazol-4-yl)-6-methoxy-2-methyl-N-(4,5,6,7-tetrahydropyrazolo[1,5-a]pyridin-3-yl)-9H-pyrimido[4,5-b]indol-4-amine], the IC50 in assay [1] turned out to be 110 nM; in assay [2], 49.2 nM; in assay [3], 16.3 nM; in assay [4], 16.5 nM.

As for `COc1cc2c(cc1-c1c(C)noc1C)[nH]c1nc(C)nc(Nc3c(C4CC4)c(C)nn3C)c12` [Cpd. No. 140, N-(4-Cyclopropyl-1,3-dimethyl-1H-pyrazol-5-yl)-7-(3,5-dimethylisoxazol-4-yl)-6-methoxy-2-methyl-9H-pyrimido[4,5-b]indol-4-amine], the concentration for half-maximal inhibition (IC50) in assay [1] is 210 nM; in assay [2], 120 nM; in assay [3], 39.3 nM; in assay [4] it was 95 nM.

In the case of `CCn1nc2c(c1Nc1nc(C)nc3[nH]c4cc(-c5c(C)noc5C)c(OC)cc4c13)CCCC2` [Cpd. No. 142, 7-(3,5-Dimethylisoxazol-4-yl)-N-(2-ethyl-4,5,6,7-tetrahydro-2H-indazol-3-yl)-6-methoxy-2-methyl-9H-pyrimido[4,5-b]indol-4-amine], the concentration for half-maximal inhibition (IC50) worked out at 7.3 nM in assay [1], 1.1 nM in assay [2], 4.5 nM in assay [3] and 0.5 nM in assay [4].

Consider `CCn1nc(C)c(C2CC2)c1Nc1nc(C)nc2[nH]c3cc(-c4c(C)noc4C)c(OC)cc3c12` [Cpd. No. 143, N-(4-Cyclopropyl-1-ethyl-3-methyl-1H-pyrazol-5-yl)-7-(3,5-dimethylisoxazol-4-yl)-6-methoxy-2-methyl-9H-pyrimido[4,5-b]indol-4-amine], for which the 50% inhibitory concentration (IC50) in assay [1] stood at 175 nM; in assay [2], 98 nM; in assay [3], 27.9 nM; in assay [4], 57.7 nM.

Consider `CCn1nc(C2CC2)c(C)c1Nc1nc(C)nc2[nH]c3cc(-c4c(C)noc4C)c(OC)cc3c12` [Cpd. No. 145, N-(3-Cyclopropyl-1-ethyl-4-methyl-1H-pyrazol-5-yl)-7-(3,5-dimethylisoxazol-4-yl)-6-methoxy-2-methyl-9H-pyrimido[4,5-b]indol-4-amine], for which the half-inhibitory concentration (IC50) in assay [1] is 170 nM; in assay [2], 69.5 nM; in assay [3] it was 18.9 nM; in assay [4] it was 56.9 nM.

As to `CCn1nc(C(F)(F)F)cc1Nc1nc(C)nc2[nH]c3cc(-c4c(C)noc4C)c(OC)cc3c12` [Cpd. No. 146, 7-(3,5-Dimethylisoxazol-4-yl)-N-(1-ethyl-3-(trifluoromethyl)-1H-pyrazol-5-yl)-6-methoxy-2-methyl-9H-pyrimido[4,5-b]indol-4-amine], the IC50 in assay [1] was determined as 39.2 nM; in assay [2], 26 nM; in assay [3], 13.7 nM; in assay [4], 7.7 nM.

In the case of `COc1cc2c(cc1-c1c(C)noc1C)[nH]c1nc(C)nc(Nc3c(C)c(C4CC4)nn3C)c12` [Cpd. No. 147, N-(3-Cyclopropyl-1,4-dimethyl-1H-pyrazol-5-yl)-7-(3,5-dimethylisoxazol-4-yl)-6-methoxy-2-methyl-9H-pyrimido[4,5-b]indol-4-amine], the half-inhibitory concentration (IC50) in assay [1] amounted to 319 nM; in assay [2], 201 nM; in assay [3], 59.9 nM; in assay [4], 93.7 nM.

In the case of `COc1cc2c(cc1-c1c(C)noc1C)[nH]c1nc(C)nc(Nc3c4c(nn3C3CC3)CCC4)c12` [Cpd. No. 148, N-(2-Cyclopropyl-2,4,5,6-tetrahydrocyclopenta[c]pyrazol-3-yl)-7-(3,5-dimethylisoxazol-4-yl)-6-methoxy-2-methyl-9H-pyrimido[4,5-b]indol-4-amine], the IC50 amounted to 20.4 nM in assay [1], 3.4 nM in assay [2], 7.9 nM in assay [3] and 5 nM in assay [4].

Turning to `COc1cc2c(cc1-c1c(C)noc1C)[nH]c1nc(C)nc(Nc3cc(C4CC4)nn3C(C)C)c12` [Cpd. No. 149, N-(3-Cyclopropyl-1-isopropyl-1H-pyrazol-5-yl)-7-(3,5-dimethylisoxazol-4-yl)-6-methoxy-2-methyl-9H-pyrimido[4,5-b]indol-4-amine], the IC50 in assay [1] came out at 14.2 nM; in assay [2], 7.2 nM; in assay [3], 6.8 nM; in assay [4], 5.4 nM.

Regarding `COc1cc2c(cc1-c1c(C)noc1C)[nH]c1nc(C)nc(Nc3c4c(nn3CCO)CCC4)c12` [Cpd. No. 150, 2-(3-((7-(3,5-Dimethylisoxazol-4-yl)-6-methoxy-2-methyl-9H-pyrimido[4,5-b]indol-4-yl)amino)-5,6-dihydrocyclopenta[c]pyrazol-2(4H)-yl)ethanol], the IC50 is 29.8 nM in assay [1], 7.2 nM in assay [2], 9.6 nM in assay [3] and 7.2 nM in assay [4].
